Laboratory results: patent publication US20090311237A1, “Combination therapy using a soluble hyaluronidase and a bisphosphonate” (priority 2008, published 2009)
Where two headings read alike, the source gives them in different places.

Test: Phase 1 Stage 1 clinical pharmacokinetics of SC ZA co-administered with rHuPH20
Assay type: in vivo, human
Details: human, serum, sc; for Tmax: read-out: Tmax
Protocol: A pharmacokinetic study of zoledronic acid (ZA) co-administered with rHuPH20 in human subjects was conducted. The primary objective of the study was to determine the bioavailability of zoledronic acid dosed via subcutaneous (SC) co-administration with human recombinant hyaluronidase PH20 (rHuPH20). […] The patients were administered the prescribed dosage formulations as follows: Cohorts 1-5 were administered a single subcutaneous infusion in a dosage volume of 100 ml at a rate of 3 mL/min. […] The dosing solution is administered via needle or catheter into the SC space of the left anterior thigh (midway between the anterior iliac crest and the cephalad border of the patella). For cohorts 1-5, the dosing solutions were administered by a controlled rate infusion pump at approximately 3 mL/minute. […] The dosing solutions were administered by syringe push bolus injection. […] Serum concentration of ZA was determined using a qualified LC-MS-MS assay after derivatization with diazomethane (Zhu, L S et al. (2006) Rapid Commun. […] The assay range was from 2.0 to 400 ng/mL with a lower limit of quantitation (LLOQ) at 2.0 ng/mL. […] Non-compartmental analysis was used for derivation of primary and secondary pharmacokinetic (PK) parameters. […] Summary statistics (mean, standard deviation, and median) were calculated using JMP or Microsoft Excel.

[1] = 0.0791 mg/kg, Subj 37, ZA 0.0791 mg/kg SC, inf 0.556 hr, PH20 24000 U
[2] = 0.0794 mg/kg, Subj 74, ZA 0.0794 mg/kg SC, inf […], PH20 6000 U
[3] = 0.082 mg/kg, Subj 63, ZA 0.0820 mg/kg SC, inf […], PH20 6000 U
[4] = 0.0877 mg/kg, Subj 46, ZA 0.0877 mg/kg SC, inf 0.276 hr, PH20 12000 U
[5] = ZA 0.25 mg SC + 24000 U rHuPH20, individual subjects
[6] = ZA 0.25 mg SC + 24000 U rHuPH20, mean, n=3
[7] = ZA 0.25 mg SC + 24000 U rHuPH20, median, n=3
[8] = ZA 0.5 mg SC + 24000 U rHuPH20, individual subjects
[9] = ZA 0.5 mg SC + 24000 U rHuPH20, mean, n=3
[10] = ZA 0.5 mg SC + 24000 U rHuPH20, median, n=3
[11] = ZA 1 mg SC + 24000 U rHuPH20, individual subjects

O=P(O)(O)C(O)(Cn1ccnc1)P(=O)(O)O [ZA, 1-hydroxy-2-(1H-imidazol-1-yl)ethylidene-1,1-bisphosphonic acid]
AUC(0-t) (0.0791 mg/kg, AUC (0-12 h), Subj 37, ZA 0.0791 mg/kg SC, inf 0.556 hr, PH20 24000 U): 499 ng·h/mL | AUC(0-t) (0.0791 mg/kg, AUC (0-24 h), Subj 37, ZA 0.0791 mg/kg SC, inf 0.556 hr, PH20 24000 U): 536 ng·h/mL | AUC(0-t) (0.0791 mg/kg, AUC (0-48 h), Subj 37, ZA 0.0791 mg/kg SC, inf 0.556 hr, PH20 24000 U): 578 ng·h/mL | Cmax [1]: 131 ng/mL | AUC(0-inf) (0.0791 mg/kg, Subj 37, ZA 0.0791 mg/kg SC, inf 0.556 hr, PH20 24000 U, read-out: AUC (0-inf)): 620 ng·h/mL | Tmax [1]: 0.81 h | AUC(0-t) (0.0794 mg/kg, AUC (0-12 h), Subj 74, ZA 0.0794 mg/kg SC, inf […], PH20 6000 U): 426 ng·h/mL | AUC(0-t) (0.0794 mg/kg, AUC (0-24 h), Subj 74, ZA 0.0794 mg/kg SC, inf […], PH20 6000 U): 467 ng·h/mL | AUC(0-t) (0.0794 mg/kg, AUC (0-48 h), Subj 74, ZA 0.0794 mg/kg SC, inf […], PH20 6000 U): 509 ng·h/mL | Cmax [2]: 120 ng/mL | AUC(0-inf) (0.0794 mg/kg, Subj 74, ZA 0.0794 mg/kg SC, inf […], PH20 6000 U, read-out: AUC (0-inf)): 555 ng·h/mL | Tmax [2]: 0.75 h | AUC(0-t) (0.082 mg/kg, AUC (0-12 h), Subj 63, ZA 0.0820 mg/kg SC, inf […], PH20 6000 U): 497 ng·h/mL | AUC(0-t) (0.082 mg/kg, AUC (0-24 h), Subj 63, ZA 0.0820 mg/kg SC, inf […], PH20 6000 U): 559 ng·h/mL | AUC(0-t) (0.082 mg/kg, AUC (0-48 h), Subj 63, ZA 0.0820 mg/kg SC, inf […], PH20 6000 U): 613 ng·h/mL | Cmax [3]: 167 ng/mL | AUC(0-inf) (0.082 mg/kg, Subj 63, ZA 0.0820 mg/kg SC, inf […], PH20 6000 U, read-out: AUC (0-inf)): 662 ng·h/mL | Tmax [3]: 0.5 h | AUC(0-t) (0.0877 mg/kg, AUC (0-12 h), Subj 46, ZA 0.0877 mg/kg SC, inf 0.276 hr, PH20 12000 U): 610 ng·h/mL | AUC(0-t) (0.0877 mg/kg, AUC (0-24 h), Subj 46, ZA 0.0877 mg/kg SC, inf 0.276 hr, PH20 12000 U): 656 ng·h/mL | AUC(0-t) (0.0877 mg/kg, AUC (0-48 h), Subj 46, ZA 0.0877 mg/kg SC, inf 0.276 hr, PH20 12000 U): 706 ng·h/mL | Cmax [4]: 213 ng/mL | AUC(0-inf) (0.0877 mg/kg, Subj 46, ZA 0.0877 mg/kg SC, inf 0.276 hr, PH20 12000 U, read-out: AUC (0-inf)): 747 ng·h/mL | Tmax [4]: 0.78 h | MRT (0.5 mg, ZA 0.5 mg, SC […] infusion, 100 mL, 3 mL/min, 24000 Units rHuPH20, extrapolated to ∞, individual subjects, read-out: SC MRT): 3.19 h | MRT (1 mg, ZA 1 mg, SC […] infusion, 100 mL, 3 mL/min, 24000 Units rHuPH20, extrapolated to ∞, individual subjects, read-out: SC MRT): 6.93 h | MRT (2 mg, ZA 2 mg, SC […] infusion, 100 mL, 3 mL/min, 24000 Units rHuPH20, extrapolated to ∞, individual subjects, read-out: SC MRT): 5.72 h | MRT (5 mg, ZA 5 mg, SC […] infusion, 100 mL, 3 mL/min, 24000 Units rHuPH20, extrapolated to ∞, individual subjects, read-out: SC MRT): 10.9 h | AUC(0-t) (AUC (0-12h), ZA 0.25 mg SC + 24000 U rHuPH20, individual subjects): 29.7 ng·h/mL | AUC(0-t) (AUC (0-12h), ZA 0.25 mg SC + 24000 U rHuPH20, mean, n=3): 29.5 ng·h/mL | AUC(0-t) (AUC (0-12h), ZA 0.25 mg SC + 24000 U rHuPH20, median, n=3): 29.5 ng·h/mL | AUC(0-t) (AUC (0-12h), ZA 0.5 mg SC + 24000 U rHuPH20, individual subjects): 60.8 ng·h/mL | AUC(0-t) (AUC (0-12h), ZA 0.5 mg SC + 24000 U rHuPH20, mean, n=3): 63.2 ng·h/mL | AUC(0-t) (AUC (0-12h), ZA 0.5 mg SC + 24000 U rHuPH20, median, n=3): 62.4 ng·h/mL | AUC(0-t) (AUC (0-12h), ZA 1 mg SC + 24000 U rHuPH20, individual subjects): 103 ng·h/mL | AUC(0-t) (AUC (0-12h), ZA 1 mg SC + 24000 U rHuPH20, mean, n=3): 115 ng·h/mL | AUC(0-t) (AUC (0-12h), ZA 1 mg SC + 24000 U rHuPH20, median, n=3): 104 ng·h/mL | AUC(0-t) (AUC (0-12h), ZA 2 mg SC + 24000 U rHuPH20, individual subjects): 218 ng·h/mL | AUC(0-t) (AUC (0-12h), ZA 2 mg SC + 24000 U rHuPH20, mean, n=3): 223 ng·h/mL | AUC(0-t) (AUC (0-12h), ZA 2 mg SC + 24000 U rHuPH20, median, n=3): 218 ng·h/mL | AUC(0-t) (AUC (0-12h), ZA 5 mg SC + 24000 U rHuPH20, individual subjects): 499 ng·h/mL | AUC(0-t) (AUC (0-12h), ZA 5 mg SC + 24000 U rHuPH20, mean, n=3): 517 ng·h/mL | AUC(0-t) (AUC (0-12h), ZA 5 mg SC + 24000 U rHuPH20, median, n=3): 499 ng·h/mL | CL/F [5]: 2.47 mL/min/kg | Cmax [5]: 6.84 ng/mL | AUC(0-inf) (ZA 0.25 mg SC + 24000 U rHuPH20, individual subjects, read-out: AUC (0-∞)): 30.8 ng·h/mL | MRT (ZA 0.25 mg SC + 24000 U rHuPH20, individual subjects, read-out: MRT): 2.93 h | Tmax [5]: 1.06 h | Vd/F (ZA 0.25 mg SC + 24000 U rHuPH20, individual subjects, read-out: Vss/F): 0.435 L/kg | Vd/F (ZA 0.25 mg SC + 24000 U rHuPH20, individual subjects, read-out: Vz/F): 0.402 L/kg | CL/F [6]: 2 mL/min/kg | Cmax [6]: 6.75 ng/mL | AUC(0-inf) (ZA 0.25 mg SC + 24000 U rHuPH20, mean, n=3, read-out: AUC (0-∞)): 30.9 ng·h/mL | MRT (ZA 0.25 mg SC + 24000 U rHuPH20, mean, n=3, read-out: MRT): 3.5 h | Tmax [6]: 1.31 h | Vd/F (ZA 0.25 mg SC + 24000 U rHuPH20, mean, n=3, read-out: Vss/F): 0.411 L/kg | Vd/F (ZA 0.25 mg SC + 24000 U rHuPH20, mean, n=3, read-out: Vz/F): 0.364 L/kg | CL/F [7]: 1.8 mL/min/kg | Cmax [7]: 6.84 ng/mL | AUC(0-inf) (ZA 0.25 mg SC + 24000 U rHuPH20, median, n=3, read-out: AUC (0-∞)): 30.8 ng·h/mL | MRT (ZA 0.25 mg SC + 24000 U rHuPH20, median, n=3, read-out: MRT): 3.37 h | Tmax [7]: 1.31 h | Vd/F (ZA 0.25 mg SC + 24000 U rHuPH20, median, n=3, read-out: Vss/F): 0.433 L/kg | Vd/F (ZA 0.25 mg SC + 24000 U rHuPH20, median, n=3, read-out: Vz/F): 0.363 L/kg | MRT (ZA 0.25 mg, SC […] infusion, 100 mL, 3 mL/min, 24000 Units rHuPH20, extrapolated to ∞, individual subjects, read-out: SC MRT): 3.37 h | CL/F [8]: 2.35 mL/min/kg | Cmax [8]: 15.3 ng/mL | AUC(0-inf) (ZA 0.5 mg SC + 24000 U rHuPH20, individual subjects, read-out: AUC (0-∞)): 62.5 ng·h/mL | MRT (ZA 0.5 mg SC + 24000 U rHuPH20, individual subjects, read-out: MRT): 3.19 h | Tmax [8]: 0.81 h | Vd/F (ZA 0.5 mg SC + 24000 U rHuPH20, individual subjects, read-out: Vss/F): 0.451 L/kg | Vd/F (ZA 0.5 mg SC + 24000 U rHuPH20, individual subjects, read-out: Vz/F): 0.456 L/kg | CL/F [9]: 2.08 mL/min/kg | Cmax [9]: 15.5 ng/mL | AUC(0-inf) (ZA 0.5 mg SC + 24000 U rHuPH20, mean, n=3, read-out: AUC (0-∞)): 65 ng·h/mL | MRT (ZA 0.5 mg SC + 24000 U rHuPH20, mean, n=3, read-out: MRT): 3.26 h | Tmax [9]: 1.14 h | Vd/F (ZA 0.5 mg SC + 24000 U rHuPH20, mean, n=3, read-out: Vss/F): 0.406 L/kg | Vd/F (ZA 0.5 mg SC + 24000 U rHuPH20, mean, n=3, read-out: Vz/F): 0.407 L/kg | CL/F [10]: 2.18 mL/min/kg | Cmax [10]: 15.3 ng/mL | AUC(0-inf) (ZA 0.5 mg SC + 24000 U rHuPH20, median, n=3, read-out: AUC (0-∞)): 64.4 ng·h/mL | MRT (ZA 0.5 mg SC + 24000 U rHuPH20, median, n=3, read-out: MRT): 3.24 h | Tmax [10]: 1.31 h | Vd/F (ZA 0.5 mg SC + 24000 U rHuPH20, median, n=3, read-out: Vss/F): 0.423 L/kg | Vd/F (ZA 0.5 mg SC + 24000 U rHuPH20, median, n=3, read-out: Vz/F): 0.428 L/kg | CL/F [11]: 2.38 mL/min/kg | Cmax [11]: 30.1 ng/mL | AUC(0-inf) (ZA 1 mg SC + 24000 U rHuPH20, individual subjects, read-out: AUC (0-∞)): 122 ng·h/mL
